Reference: US11702419B2, “Heterocyclic compound and use thereof” (Takeda Pharmaceutical Company Limited, priority 2018, dated 2023)

molecular target: T1, NMDA receptor composed of four subunits consisting of two sets of heterodimers of NR1 and NR2B (human GRIN1 and GRIN2B-expressing HEK293 cells) (Homo sapiens, UniProt Q13224); assay: NR2B Ca2+ influx assay; assay type: cell-based; settings: 10 μM compound, glutamic acid/glycine-induced Ca2+ influx, FLIPR, read-out: inhibitory rate (10 μM compound concentration)
T1 construct: host or cells: HEK293 (tetracycline-inducible expression)
Description: In order to confirm an “antagonistic action on an NMDA receptor containing the NR2B subunit” which the compound of the present invention has, inhibitory effect on the NMDA receptor activation was evaluated using “NMDA receptor composed of four subunits consisting of two sets of heterodimers of NR1 and NR2B”-expressing human fetal renal cells, specifically human glutamate ionotropic receptor NMDA type subunit 1 (GRIN1) and human glutamate ionotropic receptor NMDA type subunit 2B (GRIN2B)-expressing HEK293 cells.
As an index of the NMDA receptor activation, intracellular calcium ion (Ca^2+) influx caused by bonding of glycine and glutamate to NR1 and NR2B respectively was used. HEK293 cells were purchased from ChanTest. The cells were cultured in a DMEM/F-12 (COSMO BIO, 10-092-CM) medium containing 10% FBS (fetal bovine serum, AusGene), 100 units/mL penicillin, 100 μg/mL streptomycin, 500 μg/mL neomycin, 100 μg/mL Zeocin and 5 μg/mL Blasticidin at 37° C., 5% CO2. The cells were detached from flask with trypsin the day before the assay, suspended in a seeding medium (DMEM (Invitrogen, 31053) containing 10% FBS, 100 units/mL penicillin and 100 μg/mL streptomycin) at 8×10^5 cells/mL, seeded by 25 μL per well in a 384-well plate (Falcon, 356663) at 20000 cells/well, and cultured overnight in an incubator. On the day of the assay, tetracycline (Wako Pure Chemical Industries, 209-16561) was diluted with the seeding medium at 2 μg/mL, and the dilution was added at 25 μL/well to the plate seeded with the cells, and the cells were cultured for 2 hr in an incubator. Thereafter, the medium was removed, and the cells were washed with 50 μL/well of assay buffer (137 mM NaCl, 4 mM KCl, 1.8 mM CaCl2, 10 mM HEPES (pH 7.2), 10 mM Glucose, and 0.1% BSA). Then, a loading buffer (assay buffer containing 2.5 μM Fluo-4AM, 2 mM Amaranth and 1 mM Tartrazine) was added thereto at 25 μL/well, and loading was performed in the incubator for 30 min, and then at room temperature for 15 min. The test compound was diluted with the above-mentioned assay buffer so as to adjust the concentration to 30 μM, the obtained solution (25 μL) was added thereto (the final concentration 10 μM), and the cells were stood for 15 min at room temperature. Using FLIPR (Molecular Devices), 25 μL of an assay buffer containing 30 μM glutamic acid and 30 μM glycine was added thereto, and the fluorescence signal was measured every 3 seconds for 5 min. The relative activity value (inhibitory rate) was calculated when the cumulative total value of the fluorescence value of a well added with a buffer free of glutamic acid and glycine, relative to the cumulative total value of the fluorescence value of each well are regarded as 100% inhibition. The obtained value was evaluated as an inhibitory activity.

T1 sequence (Q13224 27-1484, other chains not shown): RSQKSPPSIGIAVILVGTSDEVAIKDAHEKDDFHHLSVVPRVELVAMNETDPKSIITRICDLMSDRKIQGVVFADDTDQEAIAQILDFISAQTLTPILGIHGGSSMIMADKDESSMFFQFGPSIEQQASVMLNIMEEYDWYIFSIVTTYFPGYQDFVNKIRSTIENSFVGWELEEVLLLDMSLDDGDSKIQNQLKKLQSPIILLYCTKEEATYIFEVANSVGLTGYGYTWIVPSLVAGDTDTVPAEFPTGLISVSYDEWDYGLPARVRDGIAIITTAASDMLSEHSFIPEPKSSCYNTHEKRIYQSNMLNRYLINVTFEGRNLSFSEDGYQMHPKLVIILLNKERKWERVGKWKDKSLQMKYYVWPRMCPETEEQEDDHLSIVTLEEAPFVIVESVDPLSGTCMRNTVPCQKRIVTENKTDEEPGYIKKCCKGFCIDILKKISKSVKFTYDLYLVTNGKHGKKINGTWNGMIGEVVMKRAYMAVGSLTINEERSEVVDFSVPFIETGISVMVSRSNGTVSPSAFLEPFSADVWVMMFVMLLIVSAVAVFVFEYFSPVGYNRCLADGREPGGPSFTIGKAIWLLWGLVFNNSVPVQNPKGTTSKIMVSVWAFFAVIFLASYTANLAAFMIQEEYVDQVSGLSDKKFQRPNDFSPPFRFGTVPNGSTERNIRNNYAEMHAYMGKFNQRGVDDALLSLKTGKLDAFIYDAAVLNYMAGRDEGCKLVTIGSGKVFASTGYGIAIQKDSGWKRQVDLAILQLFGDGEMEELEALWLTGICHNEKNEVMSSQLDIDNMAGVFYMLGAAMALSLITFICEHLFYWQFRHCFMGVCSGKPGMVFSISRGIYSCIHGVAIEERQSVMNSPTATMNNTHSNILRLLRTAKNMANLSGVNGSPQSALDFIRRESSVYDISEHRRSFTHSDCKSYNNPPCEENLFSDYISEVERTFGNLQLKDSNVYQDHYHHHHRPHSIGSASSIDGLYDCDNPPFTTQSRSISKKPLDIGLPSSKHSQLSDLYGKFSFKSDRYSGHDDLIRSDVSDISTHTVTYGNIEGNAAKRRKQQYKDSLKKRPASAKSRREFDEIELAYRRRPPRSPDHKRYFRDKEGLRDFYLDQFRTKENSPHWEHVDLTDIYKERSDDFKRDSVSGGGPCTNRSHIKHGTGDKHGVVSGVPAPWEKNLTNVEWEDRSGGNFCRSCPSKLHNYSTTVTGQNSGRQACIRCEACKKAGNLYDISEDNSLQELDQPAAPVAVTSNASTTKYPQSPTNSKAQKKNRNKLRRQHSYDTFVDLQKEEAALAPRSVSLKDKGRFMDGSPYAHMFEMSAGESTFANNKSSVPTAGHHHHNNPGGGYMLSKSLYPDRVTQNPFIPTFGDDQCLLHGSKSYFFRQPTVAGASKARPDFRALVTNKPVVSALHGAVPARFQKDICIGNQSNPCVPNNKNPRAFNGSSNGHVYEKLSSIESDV

| SMILES | inhibition at 10 µM |
| --- | --- |
| O=C(NCc1nnn2ccccc12)c1ccc(OC(F)F)c(F)c1 [Example 35, 4-(difluoromethoxy)-3-fluoro-N-([1,2,3]triazolo[1,5-a]pyridin-3-ylmethyl)benzamide] | 94% |
| Cc1ccnn2ncc(CNC(=O)c3ccc(OC(F)F)c(F)c3)c12 [Example 36, 4-(difluoromethoxy)-3-fluoro-N-((4-methylpyrazolo[1,5-b]pyridazin-3-yl)methyl)benzamide] | 97% |
| Cc1nn2ncc(CNC(=O)c3cnc(OC(F)F)c(Cl)c3)c2n1CC(F)F [Example 77, 5-chloro-N-{[1-(2,2-difluoroethyl)-2-methyl-1H-pyrazolo[1,5-b][1,2,4]triazol-7-yl]methyl}-6-(difluoromethoxy)pyridine-3-carboxamide] | 54% |
| Cn1ccn2ncc(CNC(=O)c3cnc(OC(F)F)c(Cl)c3)c12 [Example 59, 5-chloro-6-(difluoromethoxy)-N-((1-methyl-1H-imidazo[1,2-b]pyrazol-7-yl)methyl)nicotinamide] | 97% |
| Cc1cccn2nnc(CNC(=O)c3ccc(OC(F)F)c(Cl)c3)c12 [Example 3, 3-chloro-4-(difluoromethoxy)-N-((4-methyl[1,2,3]triazolo[1,5-a]pyridin-3-yl)methyl)benzamide] | 76% |
| Cc1cnn2nnc(CNC(=O)c3cnc(OC(F)F)c(F)c3)c2c1 [Example 50, 6-(difluoromethoxy)-5-fluoro-N-((5-methyl[1,2,3]triazolo[1,5-b]pyridazin-3-yl)methyl)nicotinamide] | 97% |
| Cc1ccnn2ncc(CNC(=O)c3ccc(OC(F)(F)F)c(F)c3)c12 [Example 20, 3-fluoro-N-((4-methylpyrazolo[1,5-b]pyridazin-3-yl)methyl)-4-(trifluoromethoxy)benzamide] | 97% |
| Cc1cn2ncc(CNC(=O)c3cnc(OC(F)F)c(F)c3)c2n1C [Example 85, 6-(difluoromethoxy)-N-[(1,2-dimethyl-1H-imidazo[1,2-b]pyrazol-7-yl)methyl]-5-fluoropyridine-3-carboxamide] | 97% |
| O=C(NCc1cnn2ccn(CC(F)F)c12)c1cnc(OC(F)F)c(F)c1 [Example 79, N-{[1-(2,2-difluoroethyl)-1H-imidazo[1,2-b]pyrazol-7-yl]methyl}-6-(difluoromethoxy)-5-fluoropyridine-3-carboxamide] | 87% |
| Cn1ccn2ncc(CNC(=O)c3ccc(C(F)(F)F)s3)c12 [Example 65, N-((1-methyl-1H-imidazo[1,2-b]pyrazol-7-yl)methyl)-5 (trifluoromethyl)thiophene-2-carboxamide] | 96% |
| O=C(NCc1cnn2ccn(C(F)F)c12)c1cnc(OC(F)F)c(F)c1 [Example 76, 6-(difluoromethoxy)-N-{[1-(difluoromethyl)-1H-imidazo[1,2-b]pyrazol-7-yl]methyl}-5-fluoropyridine-3-carboxamide] | 87% |
| O=C(NCc1nnn2ncccc12)c1ccc(OC(F)F)c(Cl)c1 [Example 30, 3-chloro-4-(difluoromethoxy)-N-([1,2,3]triazolo[1,5-b]pyridazin-3-ylmethyl)benzamide] | 97% |
| O=C(NCc1nnn2cc(F)ccc12)c1ccc(OC(F)(F)F)cc1 [Example 1, N-((6-fluoro[1,2,3]triazolo[1,5-a]pyridin-3-yl)methyl)-4-(trifluoromethoxy)benzamide] | 94% |
| O=C(NCc1nnn2ncccc12)c1cnc(OC(F)F)c(Cl)c1 [Example 22, 5-chloro-6-(difluoromethoxy)-N-([1,2,3]triazolo[1,5-b]pyridazin-3-ylmethyl)nicotinamide] | 98% |
| O=C(NCc1cnn2ncccc12)c1cnc(OC(F)F)c(Cl)c1 [Example 8, 5-chloro-6-(difluoromethoxy)-N-(pyrazolo[1,5-b]pyridazin-3-ylmethyl)nicotinamide] | 97% |
| Cc1nn2ncc(CNC(=O)c3cnc(OC(F)F)c(F)c3)c2n1C [Example 70, 6-(difluoromethoxy)-N-[(1,2-dimethyl-1H-pyrazolo[1,5-b][1,2,4]triazol-7-yl)methyl]-5-fluoropyridine-3-carboxamide] | 100% |
| CCc1nn2ncccc2c1CNC(=O)c1cnc(OC(F)F)c(F)c1 [Example 26, 6-(difluoromethoxy)-N-((2-ethylpyrazolo[1,5-b]pyridazin-3-yl)methyl)-5-fluoronicotinamide] | 90% |
